Experimental data as given in patent US20250129083A1, “IMIDAZOTETRAZINE COMPOUNDS AND TREATMENT OF TMZ-RESISTANT CANCERS” (THE BOARD OF TRUSTEES OF THE UNIVERSITY OF ILLINOIS, priority 2022, published 2025).
Where two headings read alike, the source gives them in different places.

How the values were obtained:
GL261 cells = experiment: Cell viability assay (Alamar Blue, 7 days), GL261; assay type: cell-based; conditions: Mus musculus, GL261, 168 h; MGMT (−) MMR (+); 7 days; 1500 c/w; SEM, n=3; read-out: Activity, GL261
Description: (§1) Cell Culture and Reagents. All cell lines were grown in a 37° C., 5% CO2, humidified environment, in media containing 1% penicillin/streptomycin. Stable cell line generation of GL261 MGMT+ was purchased from Creative Biogene. Cell culture conditions are as follows: cell lines U87, T98G, and RKO were grown in EMEM with 10% FBS. D54, GL261, GL261 MGMT+, and U118MG cell lines were grown in DMEM with 10% FBS. HCT116 cells were grown in RMPI with 10% FBS. D341 Med cells were grown in EMEM with 20% FBS. Temozolomide (TMZ) was purchased from AK Scientific. TMZ analogues were synthesized as described below. Compounds were dissolved in DMSO (1% final concentration, Fisher Chemical) for cell culture studies.
(§2) Cell Viability Assays. Cells were harvested, seeded in a 96-well plate and allowed to adhere. After three hours, compound was added to each well in DMSO (1% final concentration). Cells were incubated for seven days (unless otherwise noted) before viability was assessed by the Alamar Blue assay. Raptinal (20 μM) was used as a dead control.
(§3) Plated 1500 c/w for GL261; 600 c/w for U87; 600 c/w for U118MG; 1500 c/w for GL261 MGMT+ Incubated ovn and added 1 μL of compound in DMSO the next day. Incubated over 7 days; added Alamar Blue to assess cell viability and used 10 μM Raptinal as dead control. Error is SEM, n=3.

U87 GBM cell line = experiment: Cell viability assay (Alamar Blue, 7 days), U87; assay type: cell-based, human; conditions: Homo sapiens, 168 h, MGMT (−) MMR (+), 600 c/w, SEM, n=3, read-out: Activity, U87
Description: as §1, §2, §3

[1] = Solubility in IV formulations; assay type: physicochemical; conditions: IV formulation
[2] = system: RKO colon cancer cell line; experiment: Cell viability assay (Alamar Blue, 7 days), RKO; assay type: cell-based; conditions: 168 h; 7 days; read-out: Activity, RKO
Description: as §1, §2

[3] = Maximum tolerated dose / tolerability in mice; assay type: in vivo; conditions: for MTD at 5 days: in vivo, 66 mg/kg, once per day over 5 days
[4] = system: E. coli WP2 uvrA pKM101 strain; experiment: Ames test, E. coli WP2 uvrA pKM101; assay type: cell-based; conditions: 30 μM
Description: (§4) Next, we measured the mutagenicity of CPZ versus TMZ. TMZ and other DNA methylating chemotherapies are known mutagens, inducing G:C→A:T mutations due to erroneous recognition of O^6-methylguanine. […] CPZ and TMZ (at 30 μM) were also assessed in the E. coli WP2 uvrA pKM101 strain, which is considered one of the more sensitive Ames tester strains available.

[5] = system: S. typhimurium TA100 strain; experiment: Ames test, TA100; assay type: cell-based; conditions: 30 μM
Description: as §4
Ames Test. Compounds were assessed at the indicated concentrations in the TA100 tester strain using the Muta-ChromoPlate 96-well microplate version of the Ames test (Environmental Bio-Detection Products, Prod. No. 5051) according to manufacturer's instructions. In brief, TA100 S. typhimurium bacteria were grown overnight and plated with compound, growth medium, and indicator (no S9 activation) in 96 well plates. Bacteria were incubated for 5 days before the number of wells per 96 well plate containing revertant colonies were identified colorimetrically.

[6] = Syngeneic subcutaneous model; assay type: in vivo; conditions: C57BL/6 mice, 1×10^6 cells; 50 mg/kg IV 1×/day over 5 days from day 5
Description: FIG. 10A-B. Syngeneic Subcutaneous Model (A, B). TABZ and TMZ in vivo: C57BL/6 mice were inoculated with 1×10^6 cells and treated xl/day over 5 days with either vehicle, TMZ, or TABZ (via IV, 50 mg/kg, starting on day 5).

cancer cells = experiment: Rapid cancer cell death phenotype; assay type: cell-based; conditions: relative to TMZ
From the text: FIG. 8A-C. Rapid Cancer Cell Death Phenotype.

Brain tissue binding = assay type: in vitro ADME; conditions: 10 uM, 1 h at 37 C in brain tissue homogenate
U118MG cells = experiment: Cell viability assay (Alamar Blue, 7 days), U118MG; assay type: cell-based; conditions: Homo sapiens, U-118-MG, 168 h, MGMT (+) MMR (+), 600 c/w, SEM, n=3
Description: as §1, §2, §3

[7] = Hydrolytic stability studies; assay type: physicochemical; conditions: PBS, pH 7.4, 37° C.; HPLC
Description: Hydrolytic Stability Studies. Compound (100 μM) was incubated at 37° C. in PBS at pH 7.4 (unless otherwise noted). At the indicated time point, an aliquot was collected and analyzed by HPLC. Compound peaks were integrated and compared to the integration at to calculate the percentage of prodrug remaining.

HCT116 cells = experiment: Cell viability assay (Alamar Blue, 7 days), HCT116; assay type: cell-based; conditions: Homo sapiens, HCT-116, 168 h; MGMT (−) MMR (−); 7 days; read-out: Activity, HCT116
Description: as §1, §2

GL261 MGMT+ cells = experiment: Cell viability assay (Alamar Blue, 7 days), GL261 MGMT+; assay type: cell-based; conditions: Mus musculus, GL261, 168 h; MGMT (+) MMR (+); 7 days; 1500 c/w; SEM, n=3; read-out: Activity, GL261 MGMT+
Description: To further explore the ability of CPZ to evade MGMT-mediated resistance, MGMT-expressing T98G cells were pretreated with MGMT inhibitor O6BG followed by treatment with TMZ or CPZ. […] This cell death potentiation by TMZ upon treatment with an MGMT inhibitor was also observed in MGMT-expressing cell lines U118MG and RKO, whereas the efficacy of CPZ was again unaffected. For MGMT (−)/MMR (−) HCT116 cells, negligible potentiation of TMZ cytotoxicity was observed upon pretreatment with O6BG, confirming that loss of MMR capacity, not MGMT expression, was responsible for resistance to TMZ in HCT116 cells. Additionally, human MGMT was knocked into the MGMT-negative mouse glioma cell line, GL261, establishing the novel cell line GL261 MGMT+.
as §1, §2, §3

[8] = Hepatic metabolism: stability in mouse liver microsomes; assay type: in vitro ADME
[9] = 6.6 mg/mL solution for 200 μL injection

CC#CCn1nnc2c(C(=O)N(C)C)ncn2c1=O [TABZ, 3-(but-2-yn-1-yl)-N,N-dimethyl-4-oxo-3,4-dihydroimidazo[5,1-d][1,2,3,5]tetrazine-8-carboxamide]
IC50 (GL261 cells): 35 ± 2 µM | IC50 (U87 GBM cell line): 16 ± 2 µM | Solubility in 20/80 DMSO/PBS ([1]; 5 mg/mL solution for 100 μL injection): Soluble* | Solubility in 15/7/5/73 DMSO/NMP/T20/20% SPE-βCD [1, 9]: Soluble >25 min | Solubility in 15/10/75 DMSO/NMP/20% SPE-βCD [1, 9]: Soluble 20 min | IC50 [2]: 9 ± 1 µM | Tolerated dose, 1×/day via IV injection [3]: 50 mg/kg | MTD at 5 days ([3]; female, C57BL/6, mouse, ip, intraperitoneal, read-out: MTD, I.P.): 66 mg/kg | MTD at 5 days ([3]; mouse, intravenous, read-out: MTD, I.V.): 66 mg/kg | Mutagenicity, E. coli WP2 uvrA pKM101 [4]: non-mutagenic | Mutagenicity, TA100 [5]: non-mutagenic | Tumor growth [6]: no exacerbation | Speed of cell death induction (cancer cells): induce cell death quickly relative to TMZ | Brain tissue binding, insoluble fraction, tissue homogenizer (Brain tissue binding): 40 ± 4% | Brain tissue binding, insoluble fraction, ultrasonication (Brain tissue binding): 39 ± 4% | Brain tissue binding, soluble fraction, tissue homogenizer (Brain tissue binding): 64 ± 4% | Brain tissue binding, soluble fraction, ultrasonication (Brain tissue binding): 61 ± 4% | IC50 (U118MG cells): 24 ± 5 µM | Hydrolytic stability: percentage of prodrug remaining after 2 hours [7]: 31±1% | IC50 (HCT116 cells): 6 ± 0.42 µM | IC50 (GL261 MGMT+ cells): 18 ± 1 µM | Stability (2 h, with MLM) ([8]; percentage remaining relative to t0, mouse liver microsomes, SEM, n ≥ 2): 77 ± 2% | Stability (2 h, no MLM) ([8]; percentage remaining, microsomes replaced with PBS): 87 ± 2%
